The values below come from patent publication US10888549B2, “Pharmaceutical agents targeting cancer stem cells” (THE JOHNS HOPKINS UNIVERSITY, priority 2016, dated 2021).

Assay type in all cases: cell-based, human
For one test, the system named is SOX2. In words: SOX2 expression by western blotting / flow cytometry. As for the experimental part: Whole cell lysates were extracted using RIPA buffer (Thermo Scientific) supplemented with 10 μL/mL Halt™ Protease Inhibitor Cocktail Kit (Life Technologies) and 30 μL/mL Halt™ Phosphatase Inhibitor Cocktail Kit (Life Technologies). The protein concentrations were determined using a Pierce™ BCA Protein Assay Kit (Life Technologies), and the protein were separated on NuPAGE® 4-12% Bis-Tris Gel (Life Technologies) according to the manufacturer's protocol. COX2 (D5H5), NANOG (D73G4), OCT4 (D7O5Z), CD133 (A3G6K), Snail (C15D3), ZEB1 (D80D3), Vimentin (D21H3), CDH2 (D4R1H), CDH1 (24E10), p-EGFR (D7A5), EGFR (D38B1), p-AKT (D9E), AKT (cat #, 9272), p-ERK (D13.14.4E), ERK (137F5), p-YAP1 (D9W2I), p-Src (cat #, 2101), Src (36D10), DNMT1 (D63A6), DNMT3A (D23G1), and DNMT3B (D7O7O) antibodies were obtained from Cell Signaling Technology (Danvers, Mass., USA), except for SOX2 (EPR3131; Abcam, Cambridge, USA), YAP1 (ab52771; Abcam), CD24 (cat #, AF5247-SP; R&D Systems, Minneapolis USA) and β-actin (A2228; Sigma-Aldrich). Secondary horseradish peroxidase (HRP)-conjugated antibodies were obtained from Cell Signaling Technology, and chemiluminescent detection of HRP-labeled antibodies was performed using Amersham ECL Prime Western Blotting Detection Reagent (GE Healthcare, Piscataway, USA). As loading control, β-actin was used.
For extracellular staining, cells (1×10^6/100 μL stain buffer) were incubated with PE-Vio770-conjugated anti-human CD133 (293C3; Miltenyi Biotec, Auburn, USA) or PE-conjugated anti-human CD24 antibody (cat #, 560991; BD Biosciences) for 30 min at 4° C. in dark. PE-Vio770-conjugated Isotype (cat #, 130-098-563; Miltenyi Biotec) and PE-conjugated IgG2a, κ Isotype (cat #, 555574; BD Biosciences) were used as control for CD133 and CD24 staining, respectively. Staining for intracellular SOX2 was carried out using the BD Cytofix/Cytoperm Fixation/Permeabilization Kit (BD Biosciences) according to manufacturer's protocol. The cells were incubated with Alexa Fluor 647-conjugated anti-SOX2 antibody (cat #, 560302; BD Biosciences) for 40 min at 4° C. in dark. Alexa Fluor 647-conjugated anti-IgG2a, κ Isotype (cat #, 558053; BD Biosciences) was used as control. Data were acquired on a BD FACSCalibur flow cytometer (BD Biosciences) using BD CellQuest Pro software (BD Biosciences) and analyzed with FlowJo software v10.1 (Tree Star, Ashland, USA).
In general terms: In western blotting, separated proteins are transferred to a membrane and probed.

The test system of another test is let-7. Briefly: let-7 expression by Q-RT-PCR. The following applies: parental or spheroid bladder cancer cells. As for the experimental part: Total RNA from cell lines was isolated using the RNeasy Plus Mini kit (Qiagen, Valencia, USA) according to the manufacturer's protocol. Total RNA extraction from bladder tissue was performed with the QIAzol Lysis Reagent (Qiagen) followed by phenol extraction and ethanol precipitation. Total RNA was eluted in DEPC treated water and stored at -80° C. Total RNA extraction from urine was performed using the […] Isolation Kit (Ambion, Austin, USA). These total RNA were converted to cDNA using the SuperScript III First-Strand Synthesis System (Life technologies, Carlsbad, USA), which was then used as a template for Q-RT-PCR. Q-RT-PCR was performed using the Fast SYBR Green Master Mix (Thermo Fisher Scientific, Waltham, USA) on a 7900HT Fast Real-Time PCR System (Life technologies) in triplicate. Micro RNA (miRNA) extraction was performed using the […] Isolation Kit, and was reverse transcribed using TaqMan reverse transcription kit (Applied Biosystems, Foster City, USA) and miRNA-specific RT primers provided with TaqMan microRNA assays (Applied Biosystems). Q-RT-PCR for miRNAs was performed using the TaqMan Universal PCR Master Mix according to the manufacturer's protocol. SDS software (Applied Biosystems) was used to determine cycle threshold (Ct) values. Expression level was quantified relative to β-actin for mRNA and RNU6B for miRNA using the 2-ΔΔCt method (12).

The test system of another test is panel of miRNAs. Briefly: Expression of a panel of miRNAs in BFTC 905 cells. The method, then: Total RNA from cell lines was isolated using the RNeasy Plus Mini kit (Qiagen, Valencia, USA) according to the manufacturer's protocol. Total RNA extraction from bladder tissue was performed with the QIAzol Lysis Reagent (Qiagen) followed by phenol extraction and ethanol precipitation. Total RNA was eluted in DEPC treated water and stored at −80° C. Total RNA extraction from urine was performed using the MirVana miRNA Isolation Kit (Ambion, Austin, USA). These total RNA were converted to cDNA using the SuperScript III First-Strand Synthesis System (Life technologies, Carlsbad, USA), which was then used as a template for Q-RT-PCR. Q-RT-PCR was performed using the Fast SYBR Green Master Mix (Thermo Fisher Scientific, Waltham, USA) on a 7900HT Fast Real-Time PCR System (Life technologies) in triplicate. Micro RNA (miRNA) extraction was performed using the MirVana miRNA Isolation Kit, and was reverse transcribed using TaqMan reverse transcription kit (Applied Biosystems, Foster City, USA) and miRNA-specific RT primers provided with TaqMan microRNA assays (Applied Biosystems). Q-RT-PCR for miRNAs was performed using the TaqMan Universal PCR Master Mix according to the manufacturer's protocol. SDS software (Applied Biosystems) was used to determine cycle threshold (Ct) values. Expression level was quantified relative to β-actin for mRNA and RNU6B for miRNA using the 2-ΔΔCt method (12).

On to `Cc1ccc(-c2cc(C(F)(F)F)nn2-c2ccc(S(N)(=O)=O)cc2)cc1` [celecoxib, Celecoxib], for which the SOX2 expression entry with SOX2 (COX2 inhibitor added to erlotinib, basal-type cells) was “impaired”; with SOX2 (agent alone, bladder cancer cells) it was “repressed”. Further, in the test on let-7, the let-7 expression result is recorded as “restoration”. The “expression of several miRNAs” value with panel of miRNAs is “induced”.
